Results reported in patent US20230033911A1, “BIOACTIVE COMPOSITIONS AND METHODS OF USE THEREOF” (Ingenious Ingredients, LP, priority 2021, published 2023).

Legend:
Assay type in all cases: in vivo
[1] = tested on: Swiss Albino mice; assay: Cook's pole climbing test after scopolamine-induced amnesia; conditions: for Escape latency: Cook's pole climbing test, scopolamine i.p., n=8; for Escape latency, faster than control: relative to vehicle control
Experimental: Behavioral studies were conducted in mice to examine the learning and memory ability by using Cook's pole test.
(§1) Thirty-two 8-week-old male Swiss Albino mice were housed in an animal room at a constant temperature (22±3° C.) and humidity (30%-70%) under a 12:12 h light-dark cycle with standard laboratory diet (Purina 5L79, Rat and Mouse 18% protein; PMI Nutrition International, Brentwood, Mo., USA). Distilled water was provided ad libitum. All animal experiments were reviewed and approved by the Institutional Animal Ethical Committee (IAEC) of Radiant Research Services Pvt. Ltd (Bangalore, India). All research was conducted in accordance with the guidelines of the committee for the purpose of control and supervision of experiments on animals.
(§2) After one week of acclimation, the animals were randomly divided by body weight into four groups (n=8 per group in each test) for oral treatment once a day, at approximately same time each day (±1 hour), for 7 consecutive days: (1) vehicle control or (2) paraxanthine or (3) tyrosine or (4) tyrosine plus paraxanthine. The dose administered to the mice was calculated using US Food and Drug Administration for human equivalence doses (HED), assuming a human weight of 60 kg. The following HED was used in this study: 100 mg paraxanthine (ENFINITY®, Ingenious Ingredients, L.P Lewisville, Tex., USA; mouse dose: 20.5 mg/kg bw/day) or 500 mg tyrosine (mouse dose: 102.75 mg/kg bw/day), or 500 mg tyrosine (mouse dose: 102.75 mg/kg bw/day) plus 100 mg paraxanthine (ENFINITY®, Ingenious Ingredients, L.P Lewisville, Tex., USA; mouse dose: 20.5 mg/kg bw/day). 0.5% Carboxy Methyl Cellulose sodium was used as vehicle and the test item formulations were prepared daily. Dosing was conducted via oral gavage using disposable polypropylene syringes with sterilized stainless steel gavage tubes. Food intake was monitored daily while water intake was ad libitum.
Mice were trained in such a way that the animal had to climb the pole (shock free zone) within 30 seconds to avoid a shock. The shock was preceded by a buzzer that lasted for 15 seconds. The animals were trained to climb the pole at the sound of the buzzer (conditioned avoidance response). At particular intervals, 20 trials were given for each animal and average of the shock avoidance and mistakes were recorded. Trained animals were assayed by conditioned avoidance responses.
Amnesia was induced by using the scopolamine injection. Scopolamine is an anti-cholinergic and is an attractive amnesic agent for discerning the action of candidate anti amnesic drugs. Scopolamine is a non-selective post synaptic muscarinic receptor blocker and can cause cognitive impairments in rodents and humans via decreasing the effectiveness of ACH in the CNS in animals and humans. Scopolamine can induce the significant deficits in cognitive performance on behavioral tests which makes it a valid pharmacological model for inducing cognitive deficits. In this study to evaluate the cognitive effect, the mice were injected with scopolamine intraperitoneally to induce memory deficits.

[2] = tested on: Swiss Albino mice; assay: Forelimb grip strength test; conditions: oral once a day for 28 days; measured on day 0 and day 28, one hour after treatment
Experimental: as §1
After one week of acclimation, the animals were randomly divided by body weight into four groups (n=8 per group in each test) for oral treatment once a day, at approximately same time each day (±1 hour), for 28 consecutive days: (1) vehicle control or (2) paraxanthine or (3) tyrosine or (4) tyrosine plus paraxanthine. The dose administered to the mice was calculated using US Food and Drug Administration for human equivalence doses (HED), assuming a human weight of 60 kg. […] Food intake was monitored daily while water intake was ad libitum.
The forelimb grip strength was measured on day 0 and day 28 by using a stainless-steel grill to assess muscle strength (Orchid Scientific & Innovative India Pvt Ltd, India). Grip strength was measured one hour after treatment. […]

[3] = tested on: Swiss Albino mice; assay: Force swim test, paraxanthine plus tyrosine study (Example 2); conditions: oral once a day for 28 days; for Duration of mobility/active swimming: 30 min force swim on 28th day, n=8
Experimental: as §1
as §2, with “for 28” for “for 7”
During treatment period, training was accomplished on a swimming chamber at a moderate room temperature for 15 mins. […] The parameters measured were total time spent in active swimming (the total duration during which the animal swims throughout the experimental period).

[4] = tested on: Swiss Albino mice; assay: Force swim test, paraxanthine plus taurine study (Example 3); conditions: 30 min force swim on 28th day; oral once a day for 28 days; n=8
Experimental: as §1, with “Twenty-four” for “Thirty-two”
as §2, with “into three” for “into four”, “for 28” for “for 7”, “(1) paraxanthine” for “(1) vehicle control”, “(2) taurine” for “(2) paraxanthine”, “(3) taurine” for “(3) tyrosine or (4) tyrosine”, “mg taurine” for “mg tyrosine”
During treatment period, training was accomplished on a swimming chamber at a moderate room temperature for 15 mins. The animals were adapted to this procedure daily 1 hr after dosing for 5 days in a week during the treatment period. On 28th day of respective treatment of all the animals were subjected to force swim test. Animals were forced to swim individually for 30 min in a glass jar of height 20 cm, diameter 10 cm, and filled with fresh water to a depth of 15 cm at room temperature. The parameter measured was total time spent in active swimming (the total duration during which the animal swims throughout the experimental period) and duration of immobility (the total time during which the animal is immobile).

Row | SMILES | Escape latency ([1]; oral once a day for 7 days) [s] | Effect on scopolamine-induced amnesia, memory and learning (in words) ([1]; oral once a day for 7 days) | Escape latency, faster than control [1] [%] | Forelimb grip strength (in words, FIG. 1) [2] | Duration of mobility/active swimming [3] [min] | Energy and mood (in words) ([3]; force swim test on 28th day) | Duration of immobility [4] [min] | Duration of mobility/active swimming [4] [min] | Escape latency, slower than paraxanthine ([1]; relative to paraxanthine group) [%]
1 | Cn1c(=O)[nH]c2ncn(C)c2c1=O [paraxanthine] | 16.38 ± 2.33 | reversal of amnesia induced by scopolamine and improved memory and learning | 46.3 | improved strength over control | 8.63 ± 1.92 | improved energy and mood | 21.38 ± 1.92 | 8.63 ± 1.92 | 
2 | NCCS(=O)(=O)O [taurine] |  |  |  |  |  |  | 21.50 ± 2.20 | 8.50 ± 2.20 | 
3 | N[C@@H](Cc1ccc(O)cc1)C(=O)O [tyrosine] | 8.25 ± 1.04 |  | 30.6 | improved strength at a lesser degree | 8.88 ± 1.46 |  |  |  | 29.3
